Assay [1] relates to Mycobacterium tuberculosis variant bovis. Nature of the assay: Antimycobacterial activity against pyrazinamide-resistant Mycobacterium bovis ATCC 27289 assessed as growth inhibition after 24 hrs to 2 weeks by microbroth dilution method. The assay is classed as functional. Background: Broth dilution looks for growth in wells or tubes with falling amounts of substance.
Assay [2] has the same test system. Nature of the assay: Antimycobacterial activity against pyrazinamide-resistant Mycobacterium bovis ATCC 35720 assessed as growth inhibition after 24 hrs to 2 weeks by microbroth dilution method. It counts as functional.

Experimental findings from ChEMBL document CHEMBL2396653, “Synthesis and antimycobacterial evaluation of N-substituted 5-chloropyrazine-2-carboxamides” (Bioorg Med Chem Lett, 2013) are described below.

The structures appear in SMILES notation. In brackets after ≈: the same amount, converted by molar mass.

`NC(=O)c1cnc(Cl)cn1`: the minimal inhibitory concentration (MIC) in assay [1] and in assay [2] was 8 µg/mL (≈ 50.8 µM) throughout.
